Data taken from patent publication US9593110B2, “Neprilysin inhibitors” (Theravence Biopharma R&D IP, LLC, priority 2014, dated 2017).

Molecular target: human NEP (Homo sapiens (Human), UniProt P08473)
Assay: In vitro enzyme inhibition assay at human NEP
Details: recombinant human NEP, fluorogenic peptide substrate, 37° C.; for Ki: pKi

Sequence of human NEP (P08473 52-750): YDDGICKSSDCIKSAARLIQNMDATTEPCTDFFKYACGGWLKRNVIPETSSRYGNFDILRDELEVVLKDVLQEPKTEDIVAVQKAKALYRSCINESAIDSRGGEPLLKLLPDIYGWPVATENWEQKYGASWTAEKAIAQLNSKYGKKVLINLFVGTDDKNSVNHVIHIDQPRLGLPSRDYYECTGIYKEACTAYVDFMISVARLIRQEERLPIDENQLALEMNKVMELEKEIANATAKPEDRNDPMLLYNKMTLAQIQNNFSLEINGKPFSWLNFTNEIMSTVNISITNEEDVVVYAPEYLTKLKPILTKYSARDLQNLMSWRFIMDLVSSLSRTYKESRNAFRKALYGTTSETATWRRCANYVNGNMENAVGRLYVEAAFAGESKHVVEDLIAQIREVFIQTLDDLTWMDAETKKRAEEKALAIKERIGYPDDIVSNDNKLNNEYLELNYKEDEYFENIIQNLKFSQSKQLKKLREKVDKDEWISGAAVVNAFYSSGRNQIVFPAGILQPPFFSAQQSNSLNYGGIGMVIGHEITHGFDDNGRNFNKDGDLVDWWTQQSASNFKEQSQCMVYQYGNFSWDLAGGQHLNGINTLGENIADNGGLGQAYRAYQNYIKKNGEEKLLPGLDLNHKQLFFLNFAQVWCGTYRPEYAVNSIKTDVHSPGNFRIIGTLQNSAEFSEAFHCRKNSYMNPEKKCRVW

Row | SMILES | Ki | pKi
1 | CC(C)c1coc(C(=O)N[C@H](Cc2ccc(-c3cc(Cl)ccc3F)cc2)C[C@@H](NC(=O)[C@@H](N)CO)C(=O)O)n1 [Example 42-2, (2R,4R)-2-((S)-2-Amino-3-hydroxypropionylamino)-5-(5′-chloro-2′-fluorobiphenyl-4-yl)-4-[(4-isopropyloxazole-2-carbonyl)amino]pentanoic Acid] | 1.26 to 3.16 nM | 
2 | Cc1cnc(C(=O)N[C@H](Cc2ccc(-c3cc(Cl)ccc3F)cc2)C[C@@H](CNC(=O)CN)C(=O)O)o1 [Example 43, (2S,4S)-2-[(2-Aminoacetylamino)methyl]-5-(5′-chloro-2′-fluorobiphenyl-4-yl)-4-[(5-methyloxazole-2-carbonyl)amino]pentanoic Acid] | ≤ 1 nM | 
3 | NCC(=O)NC[C@H](C[C@@H](Cc1ccc(-c2cc(Cl)ccc2F)cc1)NC(=O)c1cnn[nH]1)C(=O)O [Example 44-1, (2S,4S)-2-[(2-Aminoacetylamino)methyl]-5-(5′-chloro-2′-fluorobiphenyl-4-yl)-4-[(3H-[1,2,3]triazole-4-carbonyl)amino]pentanoic acid] |  | ≧9.0
4 | Cc1cnc(C(=O)N[C@H](Cc2ccc(-c3cc(Cl)ccc3F)cc2)C[C@@H](CNC(=O)C(C)(C)N)C(=O)O)o1 [Example 45, (2S,4S)-2-[(2-Amino-2-methylpropionylamino)methyl]-5-(5′-chloro-2′-fluorobiphenyl-4-yl)-4-[(5-methyloxazole-2-carbonyl)-amino]pentanoic Acid] | ≤ 1 nM | 
5 | COC(=O)N[C@H](C(=O)N[C@H](C[C@@H](Cc1ccc(-c2cc(Cl)ccc2F)cc1)NC(=O)c1c[nH]nn1)C(=O)O)C(C)C [Example 46, (2R,4R)-5-(5′-Chloro-2′-fluorobiphenyl-4-yl)-2-((S)-2-methoxycarbonylamino-3-methylbutyrylamino)-4-[(1H-[1,2,3]triazole-4-carbonyl)amino]pentanoic Acid] | 1.26 to 3.16 nM | 
6 | CS(=O)(=O)N[C@H](C[C@@H](Cc1ccc(-c2ccccc2)cc1)NC(=O)c1c[nH]nn1)C(=O)O [Example 47, (2R,4R)-5-Biphenyl-4-yl-2-methanesulfonylamino-4-[(1H-[1,2,3]triazole-4-carbonyl)amino]pentanoic Acid] | 3.16 to 10 nM | 
7 | N#CC[C@H](C[C@@H](Cc1ccc(-c2ccccc2)cc1)NC(=O)c1cnn[nH]1)C(=O)O [Example 50, (2S,4S)-5-Biphenyl-4-yl-2-cyanomethyl-4-[(3H-[1,2,3]triazole-4-carbonyl)amino]pentanoic Acid] |  | ≧9.0
8 | N#CC[C@H](C[C@@H](Cc1ccc(-c2cc(Cl)ccc2F)cc1)NC(=O)c1c[nH]nn1)C(=O)O [Example 51, (2S,4S)-5-(5′-chloro-2′-fluorobiphenyl-4-yl)-2-cyanomethyl-4-[(3H-[1,2,3]triazole-4-carbonyl)amino]pentanoic acid] | 1.26 to 3.16 nM | 
9 | N#CC[C@H](C[C@@H](Cc1ccc(-c2cc(Cl)ccc2F)cc1)NC(=O)c1cnsc1)C(=O)O [Example 52-3, (2S,4S)-5-(5′-Chloro-2′-fluorobiphenyl-4-yl)-2-cyanomethyl-4-[(isothiazole-4-carbonyl)amino]pentanoic acid] | 1.26 to 3.16 nM | 
10 | NC(=O)C[C@H](C[C@@H](Cc1ccc(-c2ccccc2)cc1)NC(=O)c1cnn[nH]1)C(=O)O [Example 53, (2S,4S)-5-Biphenyl-4-yl-2-carbamoylmethyl-4-[(3H-[1,2,3]triazole-4-carbonyl)amino]pentanoic Acid] |  | ≧9.0
11 | NC(=O)C[C@@H](C[C@@H](Cc1ccc(-c2cccc(F)c2)cc1)NC(=O)c1cnn[nH]1)C(=O)O [Example 54, (2R,4S)-2-Carbamoylmethyl-5-(3′-fluorobiphenyl-4-yl)-4-[(3H-[1,2,3]triazole-4-carbonyl)amino]pentanoic Acid] | 1.26 to 3.16 nM | 
12 | O=C(N[C@H](Cc1ccc(-c2cc(Cl)ccc2F)cc1)C[C@@H](NC(=O)[C@@H]1CCCN1)C(=O)O)c1cnn[nH]1 [Example 55, (2R,4R)-5-(5′-Chloro-2′-fluorobiphenyl-4-yl)-2-[((S)-pyrrolidine-2-carbonyl)amino]-4-[(3H-[1,2,3]triazole-4-carbonyl)amino]pentanoic Acid] | 3.16 to 10 nM | 
13 | NCCCC[C@H](N)C(=O)N[C@H](C[C@@H](Cc1ccc(-c2cc(Cl)ccc2F)cc1)NC(=O)c1cnn[nH]1)C(=O)O [Example 56, (2R,4R)-5-(5′-Chloro-2′-fluorobiphenyl-4-yl)-2-((S)-2,6-diaminohexanoylamino)-4-[(3H-[1,2,3]triazole-4-carbonyl)amino]pentanoic Acid] | 1.26 to 3.16 nM | 
14 | N[C@@H](Cc1ccccc1)C(=O)N[C@H](C[C@@H](Cc1ccc(-c2cc(Cl)ccc2F)cc1)NC(=O)c1cnn[nH]1)C(=O)O [Example 57, (2R,4R)-2-((S)-2-Amino-3-phenylpropionylamino)-5-(5′-chloro-2′-fluorobiphenyl-4-yl)-4-[(3H-[1,2,3]triazole-4-carbonyl)amino]pentanoic Acid] |  | ≧9.0
15 | O=C(N[C@H](Cc1ccc(-c2cc(Cl)ccc2F)cc1)C[C@@H](Cn1ccnn1)C(=O)O)c1cnn[nH]1 [Example 61a, (2S,4S)-5-(5′-Chloro-2′-fluorobiphenyl-4-yl)-4-[(3H-[1,2,3]triazole-4-carbonyl)amino]-2-[1,2,3]triazol-1-ylmethylpentanoic Acid] | ≤ 1 nM | 
16 | O=C(N[C@H](Cc1ccc(-c2cc(Cl)ccc2F)cc1)C[C@@H](Cn1nccn1)C(=O)O)c1cnn[nH]1 [Example 61b, (2S,4S)-5-(5′-Chloro-2′-fluorobiphenyl-4-yl)-4-[(3H-[1,2,3]triazole-4-carbonyl)amino]-2-[1,2,3]triazol-2-ylmethylpentanoic Acid] | ≤ 1 nM | 
17 | O=C(N[C@H](Cc1ccc(-c2cc(Cl)ccc2F)cc1)C[C@@H](Cn1ccnc1)C(=O)O)c1cnn[nH]1 [Example 62, (2S,4S)-5-(5′-Chloro-2′-fluorobiphenyl-4-yl)-2-imidazol-1-ylmethyl-4-[(3H-[1,2,3]triazole-4-carbonyl)amino]pentanoic Acid] |  | ≧9.0
18 | O=C(N[C@H](Cc1ccc(-c2cc(Cl)ccc2F)cc1)C[C@@H](Cc1nnn[nH]1)C(=O)O)c1cnn[nH]1 [Example 63, (2S,4S)-5-(5′-Chloro-2′-fluorobiphenyl-4-yl)-2-(1H-tetrazol-5-ylmethyl)-4-[(3H-[1,2,3]triazole-4-carbonyl)amino]pentanoic Acid] | 1.26 to 3.16 nM | 
19 | CN(C)CC(=O)N[C@H](C[C@@H](Cc1ccc(-c2cc(Cl)ccc2F)cc1)NC(=O)c1cnn[nH]1)C(=O)O [Example 64, (2R,4R)-5-(5′-Chloro-2′-fluorobiphenyl-4-yl)-2-(2-dimethylaminoacetylamino)-4-[(3H-[1,2,3]triazole-4-carbonyl)amino]pentanoic Acid] | 1.26 to 3.16 nM | 
20 | CNCC(=O)N[C@H](C[C@@H](Cc1ccc(-c2cc(Cl)ccc2F)cc1)NC(=O)c1cnn[nH]1)C(=O)O [Example 65, (2R,4R)-5-(5′-Chloro-2′-fluorobiphenyl-4-yl)-2-(2-methylaminoacetylamino)-4-[(3H-[1,2,3]triazole-4-carbonyl)amino]pentanoic Acid] | 1.26 to 3.16 nM | 
21 | O=C(N[C@H](Cc1ccc(-c2cc(Cl)ccc2F)cc1)C[C@@H](Cc1noc(=O)[nH]1)C(=O)O)c1cnn[nH]1 [Example 66, (2S,4S)-5-(5′-Chloro-2′-fluorobiphenyl-4-yl)-2-(5-oxo-4,5-dihydro-[1,2,4]oxadiazol-3-ylmethyl)-4-[(3H-[1,2,3]triazole-4-carbonyl)amino]pentanoic Acid] | 1.26 to 3.16 nM | 
22 | COC(=O)NCC(=O)N[C@H](C[C@@H](Cc1ccc(-c2cc(Cl)ccc2F)cc1)NC(=O)c1c[nH]nn1)C(=O)O [Example 67, (2R,4R)-5-(5′-Chloro-2′-fluorobiphenyl-4-yl)-2-(2-methoxycarbonylaminoacetylamino)-4-[(1H-[1,2,3]triazole-4-carbonyl)amino]pentanoic Acid] |  | ≧9.0
23 | NCCCC(=O)NC[C@H](C[C@@H](Cc1ccc(-c2cc(Cl)ccc2F)cc1)NC(=O)c1cnn[nH]1)C(=O)O [Example 68, (2S,4S)-2-[(4-Aminobutyrylamino)methyl]-5-(5′-chloro-2′-fluorobiphenyl-4-yl)-4-[(3H-[1,2,3]triazole-4-carbonyl)amino]pentanoic acid] | 3.16 to 10 nM | 
24 | O=C(N[C@H](Cc1ccc(-c2cc(Cl)ccc2F)cc1)C[C@@H](CN1CCOCC1)C(=O)O)c1c[nH]nn1 [Example 69a, (2S,4S)-5-(5′-Chloro-2′-fluorobiphenyl-4-yl)-2-morpholin-4-ylmethyl-4-[(1H-[1,2,3]triazole-4-carbonyl)amino]pentanoic Acid] | 1.26 to 3.16 nM | 
25 | NCCCCCC(=O)N[C@H](C[C@@H](Cc1ccc(-c2cc(Cl)ccc2F)cc1)NC(=O)c1c[nH]nn1)C(=O)O [Example 70, (2R,4R)-2-(6-Aminohexanoylamino)-5-(5′-chloro-2′-fluorobiphenyl-4-yl)-4-[(1H-[1,2,3]triazole-4-carbonyl)amino]pentanoic Acid] |  | ≧9.0
26 | CNCCCC(=O)N[C@H](C[C@@H](Cc1ccc(-c2cc(Cl)ccc2F)cc1)NC(=O)c1c[nH]nn1)C(=O)O [Example 71, (2R,4R)-5-(5′-Chloro-2′-fluorobiphenyl-4-yl)-2-(4-methylamino-butyrylamino)-4-[(1H-[1,2,3]triazole-4-carbonyl)amino]pentanoic Acid] |  | ≧9.0
27 | NCCCCC(=O)N[C@H](C[C@@H](Cc1ccc(-c2cc(Cl)ccc2F)cc1)NC(=O)c1c[nH]nn1)C(=O)O [Example 72, (2R,4R)-2-(5-Amino-pentanoylamino)-5-(5′-chloro-2′-fluorobiphenyl-4-yl)-4-[(1H-[1,2,3]triazole-4-carbonyl)amino]pentanoic Acid] |  | ≧9.0
28 | CN(C)CCCC(=O)N[C@H](C[C@@H](Cc1ccc(-c2cc(Cl)ccc2F)cc1)NC(=O)c1c[nH]nn1)C(=O)O [Example 73, (2R,4R)-5-(5′-Chloro-2′-fluorobiphenyl-4-yl)-2-(4-dimethylaminobutyrylamino)-4-[(1H-[1,2,3]triazole-4-carbonyl)amino]pentanoic Acid] |  | ≧9.0
29 | COCCCNC[C@H](C[C@@H](Cc1ccc(-c2cc(Cl)ccc2F)cc1)NC(=O)c1cnn[nH]1)C(=O)O [Example 74, (2S,4S)-5-(5′-Chloro-2′-fluorobiphenyl-4-yl)-2-[(3-methoxypropylamino)-methyl]-4-[(3H-[1,2,3]triazole-4-carbonyl)amino]pentanoic Acid] | 1.26 to 3.16 nM | 
